Experimental data published in patent US20080138390A1, “Transdermal Delivery System For Use With Basic Permeation Enhancers” (priority 2004, published 2008).

Key:
[1] = In vitro skin permeation of testosterone from transdermal systems, Franz diffusion cells; settings: for cumulative amount of testosterone that permeated through the skin: human cadaver skin, receiver 30% NMP
Description: An in vitro skin permeation study was conducted using two testosterone transdermal delivery systems.
The backing/active agent-in-adhesive film was then pressed onto the skin with the adhesive side facing the stratum corneum. […] Three diffusion cells were used for each formulation. The receiver solution was 30% N-methyl pyrrolidone (NMP) in 70% DI H2O (v/v). The entire receiver solution was collected and replaced with fresh 30% NMP solution at each time point. The receiver solution collected was analyzed by HPLC to determine the concentration of testosterone. The cumulative amount of testosterone that permeated across the human cadaver skin was calculated using the measured testosterone concentrations in the receiver solutions, and the results were plotted versus time (FIG. 3).

[2] = In vitro skin permeation of diclofenac sodium from transdermal systems, Franz diffusion cells; assay type: in vitro ADME, human; settings: for cumulative amount of diclofenac that permeated through the skin: human cadaver skin, 32° C., 24-hour study

Row | SMILES | cumulative amount of testosterone that permeated through the skin ([1]; 0.75 g PVPP powder added (Formulation J by Table 5)) [mg/cm^2] | cumulative amount of testosterone permeated relative to absence of the powder ([1]; 0.75 g PVPP powder vs no PVPP powder) | cumulative amount of testosterone that permeated through the skin ([1]; no PVPP powder added (Formulation I by Table 5)) [mg/cm^2] | cumulative amount of diclofenac that permeated through the skin ([2]; PVPP powder added (Formulation B by Table 1)) [mg/cm^2] | cumulative amount of diclofenac permeated relative to absence of the powder ([2]; PVPP powder added vs no PVPP powder) | cumulative amount of diclofenac that permeated through the skin ([2]; PVPP powder in combination with polyethylene oxide (Formulation C by Table 1)) [mg/cm^2] | cumulative amount of diclofenac that permeated through the skin ([2]; no PVPP powder added (Formulation D by Table 1)) [mg/cm^2] | cumulative amount of diclofenac that permeated through the skin ([2]; powdered starch, poly(acrylamide-acrylic acid) sodium salt instead of PVPP (Formulation A by Table 1)) [mg/cm^2]
1 | C[C@]12CC[C@H]3[C@@H](CCC4=CC(=O)CC[C@@]43C)[C@@H]1CC[C@@H]2O [testosterone] | 0.70 | almost twice | 0.40 | – | – | – | – | –
2 | O=C(O)Cc1ccccc1Nc1c(Cl)cccc1Cl [diclofenac, diclofenac sodium] | – | – | – | 2.41 | more than five times | 2.05 | 0.48 | 1.03
